Experiment [1] deals with Casein kinase II subunit alpha' (Homo sapiens) (UniProt P19784). As to the kind of experiment: Residual activity of CK2alpha2 at 1 uM by microplate scintillation counting.
The target in experiment [2] is Tyrosine-protein kinase Fgr (Homo sapiens) (UniProt P09769). As to the kind of experiment: Residual activity of FGR at 0.1 uM by microplate scintillation counting.
The target of experiment [3] is Hepatocyte growth factor receptor (Homo sapiens) (UniProt P08581). Kind of experiment: Residual activity of MET at 0.1 uM by microplate scintillation counting.
For experiment [4], the target named is Mitogen-activated protein kinase 9 (Homo sapiens) (UniProt P45984). As to the kind of experiment: Residual activity of JNK2 at 1 uM by microplate scintillation counting.
The target of experiment [5] is Cyclin-dependent kinase 16 (Homo sapiens) (UniProt Q00536). Kind of experiment: Residual activity of PCTAIRE1 at 1 uM by microplate scintillation counting.
In experiment [6] the target is Protein-tyrosine kinase 2-beta (Homo sapiens) (UniProt Q14289). As to the kind of experiment: Residual activity of PYK2 at 1 uM by microplate scintillation counting.
The target in experiment [7] is Ribosomal protein S6 kinase alpha-4 (Homo sapiens) (UniProt O75676). As to the kind of experiment: Residual activity of RPS6KA4 at 1 uM by microplate scintillation counting.
Experiment [8] has as its target T1, Testis-specific serine/threonine-protein kinase 2 (Homo sapiens) (UniProt Q96PF2).
T1 sequence (whole entry): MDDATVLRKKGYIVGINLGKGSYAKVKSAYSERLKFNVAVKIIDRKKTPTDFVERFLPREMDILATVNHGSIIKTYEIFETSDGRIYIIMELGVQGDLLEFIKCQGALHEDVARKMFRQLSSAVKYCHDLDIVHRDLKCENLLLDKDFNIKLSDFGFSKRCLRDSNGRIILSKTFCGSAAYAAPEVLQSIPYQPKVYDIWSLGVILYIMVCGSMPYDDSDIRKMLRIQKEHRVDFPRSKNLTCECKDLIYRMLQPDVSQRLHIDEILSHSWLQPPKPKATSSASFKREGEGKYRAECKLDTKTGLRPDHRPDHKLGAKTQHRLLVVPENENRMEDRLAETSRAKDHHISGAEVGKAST
As to the kind of experiment: Residual activity of TSK2 at 1 uM by microplate scintillation counting.

The target in experiment [9] is T2, Serine/threonine-protein kinase Chk1 (Homo sapiens) (UniProt O14757).
T2 sequence (whole entry): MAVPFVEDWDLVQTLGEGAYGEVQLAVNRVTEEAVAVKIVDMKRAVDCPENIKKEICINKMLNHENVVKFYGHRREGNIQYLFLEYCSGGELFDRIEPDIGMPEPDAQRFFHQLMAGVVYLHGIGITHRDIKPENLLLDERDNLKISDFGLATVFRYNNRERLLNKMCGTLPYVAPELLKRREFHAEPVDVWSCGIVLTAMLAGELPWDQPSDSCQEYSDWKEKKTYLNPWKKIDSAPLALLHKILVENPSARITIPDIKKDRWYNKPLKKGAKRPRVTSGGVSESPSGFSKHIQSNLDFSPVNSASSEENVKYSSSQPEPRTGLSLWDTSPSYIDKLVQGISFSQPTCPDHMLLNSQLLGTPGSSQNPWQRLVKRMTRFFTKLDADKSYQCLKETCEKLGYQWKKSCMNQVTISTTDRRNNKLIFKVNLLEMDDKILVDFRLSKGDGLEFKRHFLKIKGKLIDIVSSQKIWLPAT
Kind of experiment: Residual activity of CHK1 at 10 uM by microplate scintillation counting.

The target in experiment [10] is Macrophage colony-stimulating factor 1 receptor (Homo sapiens) (UniProt P07333). Kind of experiment: Residual activity of CSF1R at 10 uM by microplate scintillation counting.
For experiment [11], the target named is MAP kinase-activated protein kinase 3 (Homo sapiens) (UniProt Q16644). As to the kind of experiment: Residual activity of MAPKAPK3 at 10 uM by microplate scintillation counting.
In experiment [12] the target is Serine/threonine-protein kinase PAK 3 (Homo sapiens) (UniProt O75914). As to the kind of experiment: Residual activity of PAK3 at 10 uM by microplate scintillation counting.
In experiment [13] the target is Cyclin-dependent kinase 2/cyclin E1 (Homo sapiens) (UniProt P24864+P24941). Kind of experiment: Residual activity of CDK2/Cyclin E at 1 uM by microplate scintillation counting. It is filed as protein-complex assay.
The target in experiment [14] is T3, Activin receptor type-1B (Homo sapiens) (UniProt P36896).
T3 sequence (whole entry): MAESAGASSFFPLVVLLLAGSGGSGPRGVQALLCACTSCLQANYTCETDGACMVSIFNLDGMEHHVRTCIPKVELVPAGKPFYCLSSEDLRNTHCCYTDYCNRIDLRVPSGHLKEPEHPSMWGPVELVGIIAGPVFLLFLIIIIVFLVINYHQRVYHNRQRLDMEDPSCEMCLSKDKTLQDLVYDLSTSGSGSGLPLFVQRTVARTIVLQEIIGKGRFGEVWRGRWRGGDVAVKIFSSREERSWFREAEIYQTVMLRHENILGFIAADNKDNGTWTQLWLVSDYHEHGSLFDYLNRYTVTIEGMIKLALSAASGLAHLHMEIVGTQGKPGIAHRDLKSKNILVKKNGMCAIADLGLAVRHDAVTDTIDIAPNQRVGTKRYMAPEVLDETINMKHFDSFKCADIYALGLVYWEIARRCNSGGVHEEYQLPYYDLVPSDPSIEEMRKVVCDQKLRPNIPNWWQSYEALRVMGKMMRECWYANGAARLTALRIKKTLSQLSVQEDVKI
As to the kind of experiment: Residual activity of ACVR1B at 0.1 uM by microplate scintillation counting.

The nature of experiment [15]: Residual activity of PKA at 0.1 uM by microplate scintillation counting.
Experiment [16] has as its target Protein kinase C beta type (Homo sapiens) (UniProt P05771). As to the kind of experiment: Residual activity of PKCbeta1 at 0.1 uM by microplate scintillation counting.

The text below walks through data of ChEMBL document CHEMBL1152560, “Substituted 2-arylbenzothiazoles as kinase inhibitors: hit-to-lead optimization” (Bioorg Med Chem, 2009).

SMILES strings stand for the structures.

Cyclin-dependent kinase 16 (Homo sapiens), sequence (Q00536 whole entry): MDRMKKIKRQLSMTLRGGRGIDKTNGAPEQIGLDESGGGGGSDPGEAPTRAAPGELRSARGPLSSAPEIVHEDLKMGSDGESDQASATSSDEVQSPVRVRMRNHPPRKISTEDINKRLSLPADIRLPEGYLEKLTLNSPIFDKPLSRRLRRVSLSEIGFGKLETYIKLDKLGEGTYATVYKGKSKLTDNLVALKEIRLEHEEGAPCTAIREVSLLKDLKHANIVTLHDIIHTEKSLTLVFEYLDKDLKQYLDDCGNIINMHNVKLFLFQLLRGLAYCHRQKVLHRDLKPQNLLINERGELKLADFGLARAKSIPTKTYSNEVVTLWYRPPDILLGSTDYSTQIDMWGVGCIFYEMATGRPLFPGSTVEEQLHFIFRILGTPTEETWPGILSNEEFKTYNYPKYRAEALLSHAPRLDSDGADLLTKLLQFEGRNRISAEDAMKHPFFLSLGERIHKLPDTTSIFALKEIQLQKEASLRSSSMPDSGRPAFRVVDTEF
Protein kinase C beta type (Homo sapiens), sequence (P05771 2-671 limits assumed): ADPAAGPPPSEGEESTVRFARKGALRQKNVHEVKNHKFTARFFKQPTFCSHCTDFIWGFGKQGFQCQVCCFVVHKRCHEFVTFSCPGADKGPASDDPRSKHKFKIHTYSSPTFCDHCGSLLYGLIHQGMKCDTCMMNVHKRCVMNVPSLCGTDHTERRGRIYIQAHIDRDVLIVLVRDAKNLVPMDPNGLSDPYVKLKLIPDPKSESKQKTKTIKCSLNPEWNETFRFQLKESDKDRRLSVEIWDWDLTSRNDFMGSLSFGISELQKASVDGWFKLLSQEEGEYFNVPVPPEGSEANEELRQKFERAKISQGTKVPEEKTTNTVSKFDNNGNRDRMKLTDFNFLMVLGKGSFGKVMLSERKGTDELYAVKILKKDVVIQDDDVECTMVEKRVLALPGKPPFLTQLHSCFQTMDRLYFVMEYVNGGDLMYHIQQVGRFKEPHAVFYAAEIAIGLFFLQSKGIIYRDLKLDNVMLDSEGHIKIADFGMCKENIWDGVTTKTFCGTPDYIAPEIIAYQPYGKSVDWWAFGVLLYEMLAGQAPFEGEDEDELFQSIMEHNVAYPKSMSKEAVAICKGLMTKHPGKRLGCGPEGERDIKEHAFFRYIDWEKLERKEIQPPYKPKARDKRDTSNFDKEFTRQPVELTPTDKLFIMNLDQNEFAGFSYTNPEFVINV
Macrophage colony-stimulating factor 1 receptor (Homo sapiens), sequence (P07333 whole entry): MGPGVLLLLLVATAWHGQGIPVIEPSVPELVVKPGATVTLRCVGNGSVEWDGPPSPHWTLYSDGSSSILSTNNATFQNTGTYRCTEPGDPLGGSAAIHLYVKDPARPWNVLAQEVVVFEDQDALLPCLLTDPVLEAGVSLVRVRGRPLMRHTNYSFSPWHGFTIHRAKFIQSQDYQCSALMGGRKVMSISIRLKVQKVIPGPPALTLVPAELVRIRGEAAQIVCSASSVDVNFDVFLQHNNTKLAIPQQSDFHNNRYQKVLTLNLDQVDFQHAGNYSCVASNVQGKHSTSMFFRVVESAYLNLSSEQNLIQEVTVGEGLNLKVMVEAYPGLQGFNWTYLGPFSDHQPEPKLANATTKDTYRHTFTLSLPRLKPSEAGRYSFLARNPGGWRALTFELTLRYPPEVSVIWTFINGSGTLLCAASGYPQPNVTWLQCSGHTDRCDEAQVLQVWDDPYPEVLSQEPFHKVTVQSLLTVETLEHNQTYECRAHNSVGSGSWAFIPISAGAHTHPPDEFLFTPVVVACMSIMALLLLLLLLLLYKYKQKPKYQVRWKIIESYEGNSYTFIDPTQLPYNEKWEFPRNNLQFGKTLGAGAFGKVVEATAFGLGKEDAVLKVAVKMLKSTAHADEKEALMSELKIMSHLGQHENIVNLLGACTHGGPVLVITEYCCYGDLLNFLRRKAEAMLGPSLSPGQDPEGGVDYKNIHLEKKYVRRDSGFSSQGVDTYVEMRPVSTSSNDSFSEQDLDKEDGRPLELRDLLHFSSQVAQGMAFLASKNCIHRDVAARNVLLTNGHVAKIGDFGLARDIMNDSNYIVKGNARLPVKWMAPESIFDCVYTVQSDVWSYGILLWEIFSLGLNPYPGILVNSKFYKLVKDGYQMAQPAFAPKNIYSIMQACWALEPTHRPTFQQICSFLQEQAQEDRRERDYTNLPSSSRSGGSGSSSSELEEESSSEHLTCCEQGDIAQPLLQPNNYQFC
MAP kinase-activated protein kinase 3 (Homo sapiens), sequence (Q16644 whole entry, looked up): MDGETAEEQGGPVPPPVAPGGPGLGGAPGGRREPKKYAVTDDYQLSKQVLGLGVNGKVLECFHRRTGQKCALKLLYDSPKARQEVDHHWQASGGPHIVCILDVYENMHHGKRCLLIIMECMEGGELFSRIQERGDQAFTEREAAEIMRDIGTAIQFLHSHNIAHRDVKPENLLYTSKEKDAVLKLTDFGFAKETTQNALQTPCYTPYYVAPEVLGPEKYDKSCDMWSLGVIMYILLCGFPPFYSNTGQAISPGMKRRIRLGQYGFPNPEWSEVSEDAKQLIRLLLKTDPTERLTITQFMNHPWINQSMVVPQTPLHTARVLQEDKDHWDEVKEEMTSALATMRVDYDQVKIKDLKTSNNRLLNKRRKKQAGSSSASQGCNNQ
Tyrosine-protein kinase Fgr (Homo sapiens), sequence (P09769 2-529 limits assumed): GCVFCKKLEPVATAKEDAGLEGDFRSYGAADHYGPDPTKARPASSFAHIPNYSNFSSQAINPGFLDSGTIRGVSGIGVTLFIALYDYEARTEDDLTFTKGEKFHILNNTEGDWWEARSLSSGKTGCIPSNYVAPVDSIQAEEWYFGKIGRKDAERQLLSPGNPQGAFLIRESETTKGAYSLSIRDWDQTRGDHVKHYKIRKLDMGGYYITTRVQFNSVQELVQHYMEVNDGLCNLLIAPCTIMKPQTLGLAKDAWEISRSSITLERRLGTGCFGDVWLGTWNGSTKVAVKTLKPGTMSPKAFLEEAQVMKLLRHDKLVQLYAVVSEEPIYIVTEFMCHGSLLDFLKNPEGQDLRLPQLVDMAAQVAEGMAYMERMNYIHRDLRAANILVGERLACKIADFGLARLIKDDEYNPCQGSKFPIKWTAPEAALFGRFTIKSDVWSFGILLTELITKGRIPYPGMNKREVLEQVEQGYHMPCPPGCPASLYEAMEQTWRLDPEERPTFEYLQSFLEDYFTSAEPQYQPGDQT
Hepatocyte growth factor receptor (Homo sapiens), sequence (P08581 whole entry): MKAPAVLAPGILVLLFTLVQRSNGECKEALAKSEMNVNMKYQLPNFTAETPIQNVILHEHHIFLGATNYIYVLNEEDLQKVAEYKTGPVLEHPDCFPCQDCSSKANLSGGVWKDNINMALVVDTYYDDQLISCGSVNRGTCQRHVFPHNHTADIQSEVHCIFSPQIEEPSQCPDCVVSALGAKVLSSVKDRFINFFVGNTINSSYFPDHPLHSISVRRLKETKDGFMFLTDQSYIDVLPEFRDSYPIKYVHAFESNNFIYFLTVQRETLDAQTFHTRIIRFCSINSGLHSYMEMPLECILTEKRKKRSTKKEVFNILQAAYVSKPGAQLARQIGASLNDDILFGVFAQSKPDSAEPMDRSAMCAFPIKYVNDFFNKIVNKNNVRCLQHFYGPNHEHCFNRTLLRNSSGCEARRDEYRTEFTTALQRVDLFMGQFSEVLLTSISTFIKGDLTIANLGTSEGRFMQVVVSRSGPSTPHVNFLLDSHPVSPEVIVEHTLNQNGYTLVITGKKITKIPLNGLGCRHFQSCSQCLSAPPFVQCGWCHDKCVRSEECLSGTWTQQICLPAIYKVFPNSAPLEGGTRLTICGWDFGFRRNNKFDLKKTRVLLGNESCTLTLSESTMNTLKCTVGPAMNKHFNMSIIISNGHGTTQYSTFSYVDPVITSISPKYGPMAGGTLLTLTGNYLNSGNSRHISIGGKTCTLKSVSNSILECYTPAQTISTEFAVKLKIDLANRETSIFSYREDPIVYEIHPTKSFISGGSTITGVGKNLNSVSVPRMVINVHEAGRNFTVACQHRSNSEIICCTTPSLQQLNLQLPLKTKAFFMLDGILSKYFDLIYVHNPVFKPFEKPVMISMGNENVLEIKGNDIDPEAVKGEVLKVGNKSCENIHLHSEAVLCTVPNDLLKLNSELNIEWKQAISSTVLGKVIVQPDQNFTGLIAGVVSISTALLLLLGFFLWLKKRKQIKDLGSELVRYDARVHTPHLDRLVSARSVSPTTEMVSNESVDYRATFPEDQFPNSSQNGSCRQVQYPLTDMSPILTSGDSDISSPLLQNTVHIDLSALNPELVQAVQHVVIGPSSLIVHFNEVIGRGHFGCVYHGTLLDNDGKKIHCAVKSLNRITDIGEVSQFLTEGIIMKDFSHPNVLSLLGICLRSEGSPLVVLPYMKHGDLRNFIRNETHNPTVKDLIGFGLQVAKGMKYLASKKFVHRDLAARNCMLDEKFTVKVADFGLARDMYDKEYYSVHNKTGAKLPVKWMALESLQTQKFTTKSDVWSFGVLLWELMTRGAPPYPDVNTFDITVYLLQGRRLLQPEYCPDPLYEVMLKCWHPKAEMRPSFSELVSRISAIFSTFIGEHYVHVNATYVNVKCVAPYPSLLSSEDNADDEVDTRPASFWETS
Mitogen-activated protein kinase 9 (Homo sapiens), sequence (P45984 whole entry, looked up): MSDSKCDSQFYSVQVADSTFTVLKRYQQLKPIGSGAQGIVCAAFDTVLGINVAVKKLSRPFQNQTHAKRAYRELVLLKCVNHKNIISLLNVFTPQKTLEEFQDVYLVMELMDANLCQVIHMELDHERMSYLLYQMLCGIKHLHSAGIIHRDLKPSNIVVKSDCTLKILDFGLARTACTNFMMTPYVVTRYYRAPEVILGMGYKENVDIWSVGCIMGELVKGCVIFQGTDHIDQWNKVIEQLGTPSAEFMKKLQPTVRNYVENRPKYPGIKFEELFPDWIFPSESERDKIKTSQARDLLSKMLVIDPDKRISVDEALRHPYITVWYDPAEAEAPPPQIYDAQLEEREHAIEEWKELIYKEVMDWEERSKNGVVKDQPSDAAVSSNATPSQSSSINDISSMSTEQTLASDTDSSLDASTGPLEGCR

Take `COc1cc2c(Oc3ccc(-c4nc5ccccc5s4)cc3F)ncnc2cc1OCCCN1CCN(C)CC1`: the residual activity in experiment [1] worked out at 89%; in [2], 103%; in experiment [3], 81%; in [4], 119%; in [5], 86%; in [6], 105%. Besides, the residual activity in experiment [7] worked out at 87%; in [8] it was 98%; in experiment [9], 142%; in experiment [10], 55%; in [11] it was 42%; in experiment [12] it was 39%. Besides, the residual activity in [13] amounted to 94%; in experiment [14], 97%; in experiment [15], 98%; in experiment [16], 109%.

On to `COc1cc2c(Oc3ccc(-c4nc5ccccc5s4)cc3)ncnc2cc1OCCCN1CCN(C)CC1`, for which the residual activity is 96% in [1]; 103% in [2]; 83% in experiment [3]; 121% in experiment [4]; 88% in experiment [5]; 97% in experiment [6]. In addition, the residual activity in [7] was 86%; in [8], 92%; in experiment [9], 131%; in [10] it was 127%; in experiment [11], 41%; in experiment [12] it was 43%. Moreover, the residual activity in [13] was determined as 102%; in experiment [14], 102%; in [15], 89%; in [16], 100%.

For the molecule `COc1cc2c(Oc3ccc(-c4nc5ccccc5s4)cc3)ncnc2cc1OCCCN1CCCC1`, the residual activity in experiment [1] was 88%; in [2] it was 96%; in experiment [3], 106%; in experiment [4] it was 90%; in [5] it was 81%; in experiment [6], 109%. In addition, the residual activity was 86% in [7]; 108% in experiment [8]; 101% in experiment [9]; 131% in experiment [10]; 67% in [11]; 56% in experiment [12]. Further, the residual activity in experiment [13] came out at 94%; in experiment [14], 100%; in experiment [15], 95%; in [16] it was 102%.
